# Measurements: paper PMC10037270 (Journal of medicinal chemistry, 2023)
# Assays:
# HA-mouse μOR = HA-mouse μOR (Mus musculus, UniProt P42866); assay: GloSensor cAMP inhibition assay at μOR in transfected HEK cells; format: cell-based; conditions: HEK293, read-out: cAMP inhibition at μOR Emax % ± SEM
# μOR [1] = biological target: T1, μOR (Homo sapiens, UniProt P35372); format: cell-based; conditions: at 10 μM, DAMGO as control
# C57BL/6 mice [2] = assay: Warm-water tail-flick assay; format: in vivo
# C57BL/6 mice [3] = assay: Hot-plate assay; format: in vivo
# C57BL/6 mice [4] = assay: Accelerating rotarod assay; format: in vivo
# μOR [5] = biological target: T1, μOR; format: binding; conditions: screen at 1 μM, [3H]DAMGO
# κOR = κOR (Homo sapiens, UniProt P41145); format: binding
# [6] = naloxone 10 mg/kg i.p. 15 min before 33 100 mg/kg s.c.
# HA-mouse μOR, sequence (P42866 whole entry): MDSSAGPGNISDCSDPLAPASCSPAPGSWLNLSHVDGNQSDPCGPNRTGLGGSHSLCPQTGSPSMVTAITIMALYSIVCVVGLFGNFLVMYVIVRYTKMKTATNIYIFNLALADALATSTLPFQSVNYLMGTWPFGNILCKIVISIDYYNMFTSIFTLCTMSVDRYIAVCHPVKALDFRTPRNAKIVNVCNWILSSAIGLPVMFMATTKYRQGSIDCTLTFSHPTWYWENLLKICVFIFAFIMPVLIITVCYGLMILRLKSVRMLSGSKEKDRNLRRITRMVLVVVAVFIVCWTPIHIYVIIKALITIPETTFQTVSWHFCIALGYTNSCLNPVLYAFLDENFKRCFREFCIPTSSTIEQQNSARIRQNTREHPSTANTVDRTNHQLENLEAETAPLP
# T1 sequence (P35372 whole entry): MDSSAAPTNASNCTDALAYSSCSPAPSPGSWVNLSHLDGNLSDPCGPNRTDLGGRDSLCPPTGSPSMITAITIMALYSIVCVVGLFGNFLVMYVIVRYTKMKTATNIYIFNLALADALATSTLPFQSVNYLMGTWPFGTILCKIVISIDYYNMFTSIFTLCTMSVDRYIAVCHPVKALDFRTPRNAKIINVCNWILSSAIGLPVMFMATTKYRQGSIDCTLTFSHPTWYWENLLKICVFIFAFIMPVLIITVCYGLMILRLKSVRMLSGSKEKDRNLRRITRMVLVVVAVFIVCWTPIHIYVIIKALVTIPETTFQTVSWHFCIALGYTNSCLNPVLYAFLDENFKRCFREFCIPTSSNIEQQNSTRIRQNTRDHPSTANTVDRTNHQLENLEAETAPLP
# κOR, sequence (P41145 whole entry): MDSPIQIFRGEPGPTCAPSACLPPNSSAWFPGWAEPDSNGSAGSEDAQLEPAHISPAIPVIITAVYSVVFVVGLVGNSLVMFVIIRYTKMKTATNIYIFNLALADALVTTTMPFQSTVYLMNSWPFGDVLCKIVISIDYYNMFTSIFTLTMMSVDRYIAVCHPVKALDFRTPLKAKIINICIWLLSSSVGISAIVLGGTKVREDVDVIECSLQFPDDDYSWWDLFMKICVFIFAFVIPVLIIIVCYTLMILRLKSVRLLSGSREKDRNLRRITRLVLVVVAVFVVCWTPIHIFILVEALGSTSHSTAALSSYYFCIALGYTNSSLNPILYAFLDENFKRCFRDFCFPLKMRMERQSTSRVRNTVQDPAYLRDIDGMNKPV
structure (smiles),measurement,setting,value
"C/C=C1\CN2CC[C@@]34c5ccccc5N(CCc5ccccc5)[C@]35OC[C@@]4(C(=O)OC)[C@H]1C[C@H]25 [Compound 33, N-1-Phenethyl psuedoakuammigine]",Emax,HA-mouse μOR,76 ± 5%
same,recruitment of βArr2 to the μOR,μOR [1],< 10%
same,ED50,"C57BL/6 mice [2]; Mus musculus, sc, read-out: ED50 tail-flick assay",77.6 mg/kg
same,"antinociception versus morphine (10 mg/kg), peak effect and duration","C57BL/6 mice [2]; mice, 100 mg/kg s.c., tail-flick",comparable to that of the morphine
same,antinociceptive effect in tail-flick assay,"C57BL/6 mice [2]; mice, 80 and 100 mg/kg s.c.",exhibited antinociceptive effect
same,"antinociceptive effect after naloxone pretreatment, tail-flick",C57BL/6 mice [2]; [6],completely blocked by naloxone
same,antinociceptive effect in hot-plate assay,"C57BL/6 mice [3]; mice, 80 and 100 mg/kg s.c.",exhibited antinociceptive effect
same,"antinociceptive effect after naloxone pretreatment, hot-plate",C57BL/6 mice [3]; [6],completely blocked by naloxone
same,"effect on locomotor activity, latency to fall","C57BL/6 mice [4]; 65 mg/kg and 80 mg/kg s.c., accelerating rotarod 4-40 rpm over 300 s",significantly impaired motor activity
same,effect on motor coordination,"C57BL/6 mice [4]; high doses (80, 100 mg/kg, s.c.)",impair motor coordination
"C/C=C1/CN2CC[C@@]34c5cc(O)c(Br)cc5N(C)[C@]35OC[C@@]4(C(=O)OC)[C@H]1C[C@H]25 [Compound 19, 11-Bromoakuammine]",radioligand displacement at μOR,μOR [5],> 50%
same,radioligand displacement at κOR,κOR,> 50%
same,Emax,HA-mouse μOR,40 ± 5%
"C/C=C1/CN2CC[C@@]34c5cc(O)ccc5N(C)[C@]35OC[C@@]4(C(=O)OC)[C@H]1C[C@H]25 [Compound 1, Akuammine, reference compound]",Emax,HA-mouse μOR,62 ± 6%
"C[C@@H](NC(=O)[C@@H](N)Cc1ccc(O)cc1)C(=O)NCC(=O)N(C)[C@@H](Cc1ccccc1)C(=O)NCCO [DAMGO, (2S)-2-[[2-[[(2R)-2-[[(2S)-2-Amino-3-(4-hydroxyphenyl)propanoyl]amino]propanoyl]amino]acetyl]-methylamino]-N-(2hydroxyethyl)-3-phenylpropanamide, reference compound]",Emax,HA-mouse μOR,96 ± 4%
"C/C=C1\CN2CC[C@@]34c5ccccc5N(CC)[C@]35OC[C@@]4(C(=O)OC)[C@H]1C[C@H]25 [Compound 31, N-1-Ethyl psuedoakuammigine]",Emax,HA-mouse μOR,59 ± 4%
"C/C=C1/CN2CC[C@@]34c5cc(O)c(I)cc5N(C)[C@]35OC[C@@]4(C(=O)OC)[C@H]1C[C@H]25 [Compound 20, 11-Iodoakuammine]",radioligand displacement at μOR,μOR [5],> 50%
same,radioligand displacement at κOR,κOR,> 50%
same,Emax,HA-mouse μOR,32 ± 6%
"C/C=C1/CN2CC[C@@]34c5ccccc5N(C)[C@]35OC[C@@]4(C(=O)OC)[C@H]1C[C@H]25 [Compound 2, Pseudoakuammigine, reference compound]",Emax,HA-mouse μOR,82 ± 7%
"C/C=C1\CN2CC[C@@]34c5ccccc5N(Cc5ccccc5)[C@]35OC[C@@]4(C(=O)OC)[C@H]1C[C@H]25 [Compound 32, N-1-Benzyl psuedoakuammigine]",Emax,HA-mouse μOR,63 ± 4%
